Experimental data from PubChem BioAssay (NCI).
Several values for one entry are separate records, joined by “and”; a condition that tells them apart may be missing. Equal entries are not always repeated.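 Grown in 96-well plates, cells were treated for 48 hours with each compound at five concentrations. Insufficient inhibition: endpoint recorded as highest concentration tested. At the GI50, growth is halved. TGI: total growth inhibition.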

Key:
Assay in all cases: NCI-60 cell line screen, 48 h
786-0 renal = test system: 786-0 renal
HCC-2998 colon = test system: HCC-2998 colon
HCT-116 colon = test system: HCT-116 colon
HL-60(TB) leukemia = test system: HL-60(TB) leukemia
HT29 colon = test system: HT29 colon
KM12 colon = test system: KM12 colon
M14 melanoma = test system: M14 melanoma
RXF 393 renal = test system: RXF 393 renal
SF-268 CNS = test system: SF-268 CNS
SNB-19 CNS = test system: SNB-19 CNS

SMILES | TGI (786-0 renal) | TGI (HCC-2998 colon) [µM] | TGI (HCT-116 colon) [µM] | TGI (HL-60(TB) leukemia) | TGI (HT29 colon) [µM] | TGI (KM12 colon) [µM] | TGI (M14 melanoma) [µM] | TGI (RXF 393 renal) [µM] | TGI (SF-268 CNS) | TGI (SNB-19 CNS) [µM] | GI50 (786-0 renal) [µM] | GI50 (HCC-2998 colon) [µM] | GI50 (HCT-116 colon) [µM] | GI50 (HL-60(TB) leukemia) [µM] | GI50 (HT29 colon) [µM] | GI50 (KM12 colon) [µM] | GI50 (M14 melanoma) [µM] | GI50 (RXF 393 renal) [µM] | GI50 (SF-268 CNS) [µM] | GI50 (SNB-19 CNS) [µM]
Cc1ccc(-n2c(C)nc3c2C(=O)c2ccccc2C3=O)cc1 | > 100 µM | > 100 | 21.4 | > 100 µM | > 100 | > 100 | > 100 | > 100 | > 100 µM | > 100 | – | – | – | – | – | – | – | – | – | –
c1cc2c(cnc3cscc32)s1 | > 100 µM | > 100 | > 100 | > 100 µM | > 100 | > 100 | > 100 | > 100 | > 100 µM | > 100 | – | – | – | – | – | – | – | – | – | –
Cc1cc(O)cc(C)c1/C=C/c1cncc(C(=O)N(C)C)c1 | > 25 µM | > 25 | > 25 | > 25 µM | > 25 | > 25 | > 25 | > 25 | > 25 µM | > 25 | > 25 | > 25 | > 25 | > 25 | > 25 | > 25 | > 25 | > 25 | > 25 | > 25
CN(C)CCNc1cccc2sc3ccc(O)cc3c(=O)c12 | 6.28 µM | 3.1 | 9.68 | 3.74 µM | 4.08 | 14.3 | 4.33 | 7.38 | 14.6 µM | 17.4 | 2.23 | 1.56 | 2.12 | 1.53 | 1.63 | 3.22 | 1.85 | 1.95 | 3.18 | 4.04
NC(N)=NNC(=O)C(=O)O | > 100 µM | > 100 | > 100 | > 100 µM | > 100 | > 100 | > 100 | > 100 | > 100 µM | > 100 | – | – | – | – | – | – | – | – | – | –
CCCCS(=N)(=O)CC[C@H](N)C(=O)O (some centres undefined) | 434 µM and > 2460 µM | > 10000 | > 10000 | 1270 µM and 224 µM | > 10000 | > 10000 | > 5620 | > 10000 | 5000 µM and > 10000 µM | > 10000 | – | > 10000 | > 9060 | 32.9 | > 10000 | > 10000 | > 5620 | > 10000 | > 10000 | > 10000
O=C1Cc2c(-c3ccccc3)cc(-c3cccc(Cl)c3)nc2-c2ccccc2N1 | 2.42 µM | 7.76 | 4.13 | > 100 µM | 5.17 | > 75.3 | > 63.9 | 6.28 | 14 µM | 3.59 | 0.977 | – | – | – | – | – | – | – | – | –
CC(SC1=CC(=O)c2c(O)ccc(O)c2C1=O)C(=O)O (centres undefined) | 56.8 µM | > 100 | > 72.3 | > 41.9 µM | > 100 | > 100 | > 75.8 | > 64.4 | > 75.1 µM | > 100 | – | – | – | – | – | – | – | – | – | –
O=C(O)c1[nH]c(C(=O)O)c(CC(F)(F)C(F)(F)C(F)(F)F)c1CC(F)(F)C(F)(F)C(F)(F)F | > 100 µM | > 100 | > 100 | > 100 µM | > 100 | > 100 | > 100 | > 100 | > 100 µM | > 100 | – | – | – | – | – | – | – | – | – | –
CCN(CC)C(=S)SSC1CCCCC1 | 35 µM | 41.1 | 25.8 | 47.2 µM | 34.8 | 28.8 | 30.9 | 31.2 | 60.9 µM | > 100 | 19.6 | 19.7 | 12.9 | 13.6 | 15.3 | 13 | 14.4 | 16.4 | 23.1 | 32.6
Cc1cc2occ(C)c(=O)c2c2c1OC(C)(C)S2 | > 100 µM | > 100 | > 100 | > 100 µM | > 100 | > 100 | > 100 | > 100 | > 100 µM | > 100 | – | – | – | – | – | – | – | – | – | –
Cc1ccc(S(=O)(=O)NCCN2c3nc4ccccc4cc3Sc3cc4ccccc4nc32)cc1 | > 45.9 µM | > 100 | > 100 | > 100 µM | > 100 | > 100 | > 100 | 66.3 | > 100 µM | 67.7 | 1.67 | > 100 | 7.11 | > 100 | > 100 | > 100 | > 100 | 22.1 | 11.4 | 10.5
CN(C)CN1C(=O)S/C(=C2\C(=O)N(CN(C)C)c3ccccc32)C1=O | > 100 µM | > 100 | > 100 | 37.2 µM | > 100 | > 100 | 68.3 | 75 | > 100 µM | > 100 | – | – | – | – | – | – | – | – | – | –
CCc1cccc(C)c1NC(=O)CC1Sc2ccccc2NC1=O (centres undefined) | > 100 µM | 81.2 | > 100 | 47.3 µM | – | > 100 | > 100 | 73.7 | > 100 µM | > 100 | – | – | – | – | – | – | – | – | – | –
c1ccc(COc2ccc3[nH]c4c(ncc5[nH]c6ccccc6c54)c3c2)cc1 | 18.5 µM | 23.6 | 27 | 4.35 µM | 17.8 | 29.5 | 26.7 | 23.3 | 34.6 µM | 33.5 | – | – | – | – | – | – | – | – | – | –
[Cl][Sn]([c]1ccccc1)[c]1ccccc1 | 12.8 µM | 27.8 | 22.9 | 6.46 µM | 24.2 | 18 | 24.4 | 3.24 | 16.1 µM | 23.8 | 3.79 | 14.1 | 6.91 | 2.29 | 9.99 | 12.4 | 8.24 | 1.55 | 4.1 | 11.6
Nc1ccc2c(c1)[O][Sn]([c]1ccccc1)([c]1ccccc1)[O]C2=O | 7.95 µM | 33.2 | 15.7 | 10.4 µM | 26.5 | 33.5 | 25.4 | 6.09 | 21.2 µM | 31.3 | 3.79 | 17.8 | 7.97 | 2.64 | 12.1 | 16.5 | 11.2 | 2.06 | 7.63 | 17.3
